System: subjects with moderate-to-severe plaque psoriasis
Assay: PSSD symptom and sign scores, Example 2
Format: in vivo, human
Details: for Change from Baseline in PSSD Sign Score, LSMean / Change from Baseline in PSSD Symptom Score, LSMean: MMRM

CC(=O)NCCCC[C@@H]1NC(=O)[C@H](Cc2c[nH]c3c(C)cccc23)NC(=O)[C@H]([C@@H](C)O)NC(=O)[C@H](CC(N)=O)NC(=O)[C@@H](NC(C)=O)C(C)(C)SSC(C)(C)[C@@H](C(=O)N[C@@H](Cc2ccc(OCCN)cc2)C(=O)N[C@@H](Cc2ccc3ccccc3c2)C(=O)NC2(C(=O)N[C@@H](CCC(=O)O)C(=O)N[C@@H](CC(N)=O)C(=O)N[C@@H](Cc3cccnc3)C(=O)N(C)CC(N)=O)CCOCC2)NC1=O [IL-23 receptor antagonist peptide, Ac-[Pen]*-N-T-[W(7-Me)]-[Lys(Ac)]-[Pen]*-Phe[4-(2-aminoethoxy)]-[2-Nal]-[THP]-E-N-[3-Pal]-Sarc-NH2 (*[Pen]-[Pen]* formdisulfidebond)]
Subjects Achieving PSSD Sign Score 0 (%) (Week 16, 25 mg QD, Baseline Sign Score ≥1, N=43): (2.3%)
Subjects Achieving PSSD Symptom Score 0 (%) (Week 16, 25 mg QD, Baseline Symptom Score ≥1, N=43): (16.3%)
Change from Baseline in PSSD Sign Score, LSMean (Week 16, 25 mg QD): −31.7
Change from Baseline in PSSD Symptom Score, LSMean (Week 16, 25 mg QD): −28.0
Change from Baseline in PSSD Sign Score, Mean (Week 16, 50 mg QD): −42.7
Change from Baseline in PSSD Sign Score, Median (Week 16, 50 mg QD): −43.0
Change from Baseline in PSSD Symptom Score, Mean (Week 16, 50 mg QD): −36.7
Change from Baseline in PSSD Symptom Score, Median (Week 16, 50 mg QD): −36.0
Subjects Achieving PSSD Sign Score 0 (%) (Week 16, 50 mg QD, Baseline Sign Score ≥1, N=43): (14.0%)
Subjects Achieving PSSD Symptom Score 0 (%) (Week 16, 50 mg QD, Baseline Symptom Score ≥1, N=42): (23.8%)
Change from Baseline in PSSD Sign Score, LSMean (Week 16, 50 mg QD): −42.9
Change from Baseline in PSSD Symptom Score, LSMean (Week 16, 50 mg QD): −35.4
Change from Baseline in PSSD Sign Score, Mean (Week 16, 100 mg BID): −51.1
Change from Baseline in PSSD Sign Score, Median (Week 16, 100 mg BID): −55.0
Change from Baseline in PSSD Symptom Score, Mean (Week 16, 100 mg BID): −44.0
Change from Baseline in PSSD Symptom Score, Median (Week 16, 100 mg BID): −42.0
Subjects Achieving PSSD Sign Score 0 (%) (Week 16, 100 mg BID, Baseline Sign Score ≥1, N=42): (14.3%)
Subjects Achieving PSSD Symptom Score 0 (%) (Week 16, 100 mg BID, Baseline Symptom Score ≥1, N=42): (26.2%)
Change from Baseline in PSSD Sign Score, LSMean (Week 16, 100 mg BID): −50.6
Change from Baseline in PSSD Symptom Score, LSMean (Week 16, 100 mg BID): −40.2
Change from Baseline in PSSD Sign Score, Median (Week 16, 100 mg QD): −45.0
Change from Baseline in PSSD Symptom Score, Mean (Week 16, 100 mg QD): −29.4
Change from Baseline in PSSD Symptom Score, Median (Week 16, 100 mg QD): −31.0
Subjects Achieving PSSD Sign Score 0 (%) (Week 16, 100 mg QD, Baseline Sign Score ≥1, N=43): (16.3%)
Subjects Achieving PSSD Symptom Score 0 (%) (Week 16, 100 mg QD, Baseline Symptom Score ≥1, N=43): (27.9%)
Change from Baseline in PSSD Sign Score, LSMean (Week 16, 100 mg QD): −45.3
Change from Baseline in PSSD Symptom Score, LSMean (Week 16, 100 mg QD): −36.8
Change from Baseline in PSSD Sign Score, Mean (Week 24, 25 mg BID): −39.8
Change from Baseline in PSSD Sign Score, Median (Week 24, 25 mg BID): −41.0
Change from Baseline in PSSD Symptom Score, Mean (Week 24, 25 mg BID): −33.3
Change from Baseline in PSSD Symptom Score, Median (Week 24, 25 mg BID): −29.0
Subjects Achieving PSSD Sign Score 0 (%) (Week 24, 25 mg BID, Baseline Sign Score ≥1, N=41): (4.9%)
Subjects Achieving PSSD Symptom Score 0 (%) (Week 24, 25 mg BID, Baseline Symptom Score ≥1, N=41): (7.3%)
Change from Baseline in PSSD Sign Score, LSMean (Week 24, 25 mg BID): −37.7
Change from Baseline in PSSD Symptom Score, LSMean (Week 24, 25 mg BID): −32.1
Change from Baseline in PSSD Sign Score, Mean (Week 24, 25 mg QD): −38.6
Change from Baseline in PSSD Sign Score, Median (Week 24, 25 mg QD): −44.5
Change from Baseline in PSSD Symptom Score, Mean (Week 24, 25 mg QD): −32.9
Change from Baseline in PSSD Symptom Score, Median (Week 24, 25 mg QD): −33.0
Subjects Achieving PSSD Sign Score 0 (%) (Week 24, 25 mg QD, Baseline Sign Score ≥1, N=43): (14.0%)
Subjects Achieving PSSD Symptom Score 0 (%) (Week 24, 25 mg QD, Baseline Symptom Score ≥1, N=43): (20.9%)
Change from Baseline in PSSD Sign Score, LSMean (Week 24, 25 mg QD): −31.6
Change from Baseline in PSSD Symptom Score, LSMean (Week 24, 25 mg QD): −25.3
Change from Baseline in PSSD Sign Score, Mean (Week 24, 50 mg QD): −45.7
Change from Baseline in PSSD Sign Score, Median (Week 24, 50 mg QD): −47.5
Change from Baseline in PSSD Symptom Score, Mean (Week 24, 50 mg QD): −38.8
Change from Baseline in PSSD Symptom Score, Median (Week 24, 50 mg QD): −40.0
Subjects Achieving PSSD Sign Score 0 (%) (Week 24, 50 mg QD, Baseline Sign Score ≥1, N=43): (9.3%)
Subjects Achieving PSSD Symptom Score 0 (%) (Week 24, 50 mg QD, Baseline Symptom Score ≥1, N=42): (14.3%)
Change from Baseline in PSSD Sign Score, LSMean (Week 24, 50 mg QD): −45.3
Change from Baseline in PSSD Symptom Score, LSMean (Week 24, 50 mg QD): −36.3
Change from Baseline in PSSD Sign Score, Mean (Week 24, 100 mg BID): −51.6
Change from Baseline in PSSD Sign Score, Median (Week 24, 100 mg BID): −53.0
Change from Baseline in PSSD Symptom Score, Mean (Week 24, 100 mg BID): −44.8
Change from Baseline in PSSD Symptom Score, Median (Week 24, 100 mg BID): −44.0
Subjects Achieving PSSD Sign Score 0 (%) (Week 24, 100 mg BID, Baseline Sign Score ≥1, N=42): (19.0%)
Subjects Achieving PSSD Symptom Score 0 (%) (Week 24, 100 mg BID, Baseline Symptom Score ≥1, N=42): (21.4%)
Change from Baseline in PSSD Sign Score, LSMean (Week 24, 100 mg BID): −50.0
Change from Baseline in PSSD Symptom Score, LSMean (Week 24, 100 mg BID): −40.3
Change from Baseline in PSSD Sign Score, Mean (Week 24, 100 mg QD): −41.9
Change from Baseline in PSSD Sign Score, Median (Week 24, 100 mg QD): −44.0
Change from Baseline in PSSD Symptom Score, Mean (Week 24, 100 mg QD): −28.4
Change from Baseline in PSSD Symptom Score, Median (Week 24, 100 mg QD): −26.0
Subjects Achieving PSSD Sign Score 0 (%) (Week 24, 100 mg QD, Baseline Sign Score ≥1, N=43): (11.6%)
Subjects Achieving PSSD Symptom Score 0 (%) (Week 24, 100 mg QD, Baseline Symptom Score ≥1, N=43): (25.6%)
Change from Baseline in PSSD Sign Score, LSMean (Week 24, 100 mg QD): −46.3
Change from Baseline in PSSD Symptom Score, LSMean (Week 24, 100 mg QD): −36.4
Change from Baseline in PSSD Sign Score, Mean (Week 24, Placebo → 100 mg QD): −40.2
Change from Baseline in PSSD Sign Score, Median (Week 24, Placebo → 100 mg QD): −40.0
Change from Baseline in PSSD Symptom Score, Mean (Week 24, Placebo → 100 mg QD): −26.6
Change from Baseline in PSSD Symptom Score, Median (Week 24, Placebo → 100 mg QD): −26.0
Subjects Achieving PSSD Sign Score 0 (%) (Week 24, Placebo → 100 mg QD, Baseline Sign Score ≥1, crossed-over subjects only): (8.6%)
Subjects Achieving PSSD Symptom Score 0 (%) (Week 24, Placebo → 100 mg QD, Baseline Symptom Score ≥1, crossed-over subjects only): (11.4%)
Change from Baseline in PSSD Sign Score, LSMean (Week 24, Placebo → 100 mg QD): −40.3
Change from Baseline in PSSD Symptom Score, LSMean (Week 24, Placebo → 100 mg QD): −29.2
Change from Baseline in PSSD Sign Score, Mean (Week 32, 25 mg BID): −38.3
Change from Baseline in PSSD Sign Score, Median (Week 32, 25 mg BID): −38.0
Change from Baseline in PSSD Symptom Score, Mean (Week 32, 25 mg BID): −31.0
Change from Baseline in PSSD Symptom Score, Median (Week 32, 25 mg BID): −28.0
Subjects Achieving PSSD Sign Score 0 (%) (Week 32, 25 mg BID, Baseline Sign Score ≥1, N=41): (4.9%)
Subjects Achieving PSSD Symptom Score 0 (%) (Week 32, 25 mg BID, Baseline Symptom Score ≥1, N=41): (7.3%)
Change from Baseline in PSSD Sign Score, LSMean (Week 32, 25 mg BID): −38.9
Change from Baseline in PSSD Symptom Score, LSMean (Week 32, 25 mg BID): −31.4
Change from Baseline in PSSD Sign Score, Mean (Week 32, 25 mg QD): −37.2
Change from Baseline in PSSD Sign Score, Median (Week 32, 25 mg QD): −39.0
Change from Baseline in PSSD Symptom Score, Mean (Week 32, 25 mg QD): −32.5
Change from Baseline in PSSD Symptom Score, Median (Week 32, 25 mg QD): −32.0
Subjects Achieving PSSD Sign Score 0 (%) (Week 32, 25 mg QD, Baseline Sign Score ≥1, N=43): (9.3%)
Subjects Achieving PSSD Symptom Score 0 (%) (Week 32, 25 mg QD, Baseline Symptom Score ≥1, N=43): (20.9%)
Change from Baseline in PSSD Sign Score, LSMean (Week 32, 25 mg QD): −31.3
Change from Baseline in PSSD Symptom Score, LSMean (Week 32, 25 mg QD): −26.2
Change from Baseline in PSSD Sign Score, Mean (Week 32, 50 mg QD): −39.7
Change from Baseline in PSSD Sign Score, Median (Week 32, 50 mg QD): −45.0
Change from Baseline in PSSD Symptom Score, Mean (Week 32, 50 mg QD): −35.9
Change from Baseline in PSSD Symptom Score, Median (Week 32, 50 mg QD): −32.0
Subjects Achieving PSSD Sign Score 0 (%) (Week 32, 50 mg QD, Baseline Sign Score ≥1, N=43): (9.3%)
Subjects Achieving PSSD Symptom Score 0 (%) (Week 32, 50 mg QD, Baseline Symptom Score ≥1, N=42): (14.3%)
Change from Baseline in PSSD Sign Score, LSMean (Week 32, 50 mg QD): −39.0
Change from Baseline in PSSD Symptom Score, LSMean (Week 32, 50 mg QD): −32.9
Change from Baseline in PSSD Sign Score, Mean (Week 32, 100 mg BID): −52.3
Change from Baseline in PSSD Sign Score, Median (Week 32, 100 mg BID): −54.0
Change from Baseline in PSSD Symptom Score, Mean (Week 32, 100 mg BID): −45.5
Change from Baseline in PSSD Symptom Score, Median (Week 32, 100 mg BID): −47.0
Subjects Achieving PSSD Sign Score 0 (%) (Week 32, 100 mg BID, Baseline Sign Score ≥1, N=42): (21.4%)
Subjects Achieving PSSD Symptom Score 0 (%) (Week 32, 100 mg BID, Baseline Symptom Score ≥1, N=42): (23.8%)
Change from Baseline in PSSD Sign Score, LSMean (Week 32, 100 mg BID): −51.0
Change from Baseline in PSSD Symptom Score, LSMean (Week 32, 100 mg BID): −40.9
Change from Baseline in PSSD Sign Score, Mean (Week 32, 100 mg QD): −42.3
Change from Baseline in PSSD Sign Score, Median (Week 32, 100 mg QD): −43.0
